Numbered stars: 1 amine (or outer) side, 2 acyl side, 3 side chain; on linkers, the order of the positions; unused ones are H or OH. Square brackets hold non-standard residues; d marks the D form. Peptide text beside a SMILES is read from it. * marks the point of attachment. 5FAM = O=C1OC2(c3ccc(O)cc3Oc3cc(O)ccc32)c2ccc(C(=O)*)cc21; NHCH2C6H4(4-CH2CONH2) = NC(=O)Cc1ccc(CN*)cc1; X1 = O=C(Cc1ccc(CN[*:1])cc1)[*:2]

2 molecules from patent US20230393140A1, “BINDING ASSAYS INVOLVING A PLURALITY OF SYNTHETIC COMPOUNDS, TARGETS, AND COUNTER TARGETS” (SRI International, priority 2020, published 2023) can be followed below.

For one data set, the target named is T1, K-Ras (Homo sapiens, UniProt P01116, G12V).
T1 construct: purchased Cytoskeleton Inc. CS-RS04
Description: MST binding affinity of resynthesized NNP hits to K-Ras. Conditions: read-out: KD (nM) [95% conf. int]; MST; NNP1 library hit; target K-Ras; one-site binding model. Summed up:
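K-Ras G12V was GTP-loaded (EDTA exchange, 750 μM GTP, 2 h at 30° C, then MgCl2) and labeled with maleimide-647 dye. MST was run at room temperature in 20 mM HEPES pH 7.4, 150 mM NaCl, 10 mM MgCl2, 0.05% Tween-20, 1 mM DTT. Incubations lasted 15, 30 and 45 min; triplicate data fitted for affinity.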

The test system of data set [1] is HEK293 cells (non-expressing). Kind of data set: ASGPR uptake assay, flow cytometry, HEK293. Conditions: fluorescein-labeled compounds. The data set is classed as cell-based, human. As for the experimental part: (§1) The HEK293T (human embryonic kidney cells) and human hepatoma HepG2 cells were grown according to the protocols provided by the American Type Culture Collection (ATCC). When cells reached cell were seeded at ˜1.5×10^5 cells/well in 24-well culture plate for the uptake assay. After at least 16 hours of culture to allow cell attach and equilibrate, the compound treatment was set up for the uptake assay.
The fluorescein-labeled NNPs or fluorescein-labeled N-acetylgalactosamine (GalNAc) recognizing ASGRPR were added to wells at indicated concentrations and incubated for 2 hours. Two plates were prepared for each treatment condition, one serving as 4 degrees C. no internalization control that was kept on ice during incubation, while the second plate was incubated at 37 degrees C. to allow for energy dependent internalization. Following the incubation period, all plates were placed on ice and washed three times with ice-cold PBS/3% BSA/2 mM EDTA and then lifted with trypsin. Cells were transferred to a 96-well round bottom plates in FACS buffer. Cells were then analyzed by flow cytometry using LSR-HJ with HTS sampler (BD Biosciences, San Jose, CA, USA). Data (mean fluorescence intensities) and further analyzed using Flowjo software (BD Biosciences, San Jose, CA, USA). The internalized fraction was expressed as the difference between the corresponding 4 degrees C. and 37 degrees C. […]
A general note: In flow cytometry, cells or beads pass a laser one at a time.

Data set [2] relates to HepG2 cells (high ASGPR expressing). Kind of data set: ASGPR uptake assay, flow cytometry, HepG2. The data set is classed as cell-based, human. Conditions: fluorescein-labeled compounds, flow cytometry, 2 hours. The procedure:
as §1
The fluorescein-labeled NNPs or fluorescein-labeled N-acetylgalactosamine (GalNAc) recognizing ASGRPR were added to wells at indicated concentrations and incubated for 2 hours. Two plates were prepared for each treatment condition, one serving as 4 degrees C. no internalization control that was kept on ice during incubation, while the second plate was incubated at 37 degrees C. to allow for energy dependent internalization. Following the incubation period, all plates were placed on ice and washed three times with ice-cold PBS/3% BSA/2 mM EDTA and then lifted with trypsin. Cells were transferred to a 96-well round bottom plates in FACS buffer. Cells were then analyzed by flow cytometry using LSR-HJ with HTS sampler (BD Biosciences, San Jose, CA, USA). Data (mean fluorescence intensities) and further analyzed using Flowjo software (BD Biosciences, San Jose, CA, USA). The internalized fraction was expressed as the difference between the corresponding 4 degrees C. and 37 degrees C. MFIs as previously described.

Data set [3] is classed as in vitro ADME. Particulars: 17 h. The procedure:
For human plasma stability, lyophilized human plasma was reconstituted in sterile water for injection, aliquoted into 200 uL aliquots and stored frozen at −80 degrees C. prior to the stability studies. For the stability studies three aliquots per NNP were thawed at room temperature. An additional set of three aliquots for a positive control peptide (Angiotensin I) were also thawed. The incubations for the plasma stability were initiated by mixing 2 uL of a 2 mM stock solution of NNP IL6R-87-8 or positive control in DMSO with the 200 uL thawed plasma aliquot. After briefly vortex-mixing, 50 uL zero-time-point samples were removed, mixed with 50 uL of water and 400 uL of acetonitrile and frozen on dry ice until all time point samples had been collected. The samples were incubated at 37 degrees C. with samples removed and water/acetonitrile added at 1 hour, 3 hours, and 17 hours. Proteins were precipitated by centrifuging the samples at 17,000 G, 4 degrees C. for 1 hour. The supernatants were removed and concentrated in a centrifugal vacuum concentrator (GeneVac Genie II) at 45 degrees C. until the volume had been reduced to around 60 uL. […]

The target of the next data set is proteinase K (Parengyodontium album, UniProt P06873). Description: Proteinase K stability assay. The data set is classed as in vitro ADME. Particulars: 37 degrees C; aliquots at 0, 1.5 and 16 hours; LC-MS. The procedure: For proteinase K stability, solutions of each tested compound (200 μM) in 10% DMSO and 20 mM Tris HCl at pH 8 were prepared. Proteinase K was added to a final concentration of […] and 100 μM of the tested compound in 5% DMSO and 10 mM Tris HCl at pH 8. The solutions were incubated at 37 degrees C. and aliquots after 0 hours, 1.5 hours and 16 hours were analyzed by LC-MS.
Chain of proteinase K (P06873 106-384, species assumed): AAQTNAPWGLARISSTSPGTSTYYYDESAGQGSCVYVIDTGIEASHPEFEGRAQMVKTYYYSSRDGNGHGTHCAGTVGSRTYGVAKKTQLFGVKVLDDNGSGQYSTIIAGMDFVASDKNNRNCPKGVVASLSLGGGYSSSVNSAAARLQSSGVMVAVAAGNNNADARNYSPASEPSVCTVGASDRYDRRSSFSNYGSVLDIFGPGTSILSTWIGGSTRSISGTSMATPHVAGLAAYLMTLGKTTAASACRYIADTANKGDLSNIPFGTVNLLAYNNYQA

In the next data set the target is T2, IL-6R (Homo sapiens, UniProt P08887).
T2 construct: purchased Creative Biomart IL6R-584H
T2 sequence (P08887 20-355 limits assumed): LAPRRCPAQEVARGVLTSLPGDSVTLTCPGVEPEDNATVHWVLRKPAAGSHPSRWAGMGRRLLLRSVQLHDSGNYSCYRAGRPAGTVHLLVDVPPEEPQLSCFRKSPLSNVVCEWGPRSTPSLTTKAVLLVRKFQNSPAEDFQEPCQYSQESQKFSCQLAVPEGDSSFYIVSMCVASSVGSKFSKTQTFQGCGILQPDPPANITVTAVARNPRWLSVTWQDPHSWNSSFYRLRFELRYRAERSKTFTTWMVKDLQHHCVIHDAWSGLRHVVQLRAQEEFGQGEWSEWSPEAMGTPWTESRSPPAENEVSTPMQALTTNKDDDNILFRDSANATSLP
Description: MST binding affinity of resynthesized NNP hits to IL-6R. Particulars: IL-6R; ester versus amide amino acid-PAM bond polymers, library NNP2. Summed up:
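Microscale thermophoresis at room temperature, triplicate, 15, 30 and 45 min incubations; targets labeled with RED-NHS 647 dye. Buffers (all 20 mM HEPES pH 7.4 unless noted): IL-6 150 mM KCl, 10 mM MgCl2, 0.1% Pluronic F-127; IL-6R 150 mM NaCl, 10 mM MgCl2, 0.05% Tween-20; TNFα 10 mM HEPES, 150 mM NaCl, 10 mM MgCl2, 0.05% Polysorbate-20; ASGPR adds 2 mM CaCl2, 0.05% Pluronic F-127, 1 mM DTT.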

Consider `CC(C)C[C@@H](NC(=O)[C@@H](CCC(=O)O)NC(=O)[C@@H](C)NC(=O)Cc1ccc(CNC(=O)[C@H](Cc2ccccc2)NC(=O)[C@@H](CCCNC(=N)N)NC(=O)[C@@H](Cc2ccc(O)cc2)NC(=O)[C@@H](CCCCN)NC(=O)[C@H]2CCCN2C(=O)Cc2ccc(CNC(=O)CNC(=O)[C@@H](CCCNC(=N)N)NC(=O)[C@@H](CCC(=O)O)NC(=O)[C@@H](CO)NC(=O)[C@H]3CCCN3C(=O)Cc3ccc(CNC(=O)[C@H](C)NC(=O)[C@@H](CCCNC(=N)N)NC(=O)[C@H]4CCCN4C(=O)[C@H](NC(=O)CNC(=O)Cc4ccc(CNC(=O)[C@H](Cc5ccccc5)NC(=O)[C@@H](CCC(=O)O)NC(=O)[C@@H](Cc5c[nH]cn5)NC(=O)[C@H]5CCCN5C(=O)[C@@H](CO)NC(=O)c5ccc6c(c5)C(=O)OC65c6ccc(O)cc6Oc6cc(O)ccc65)cc4)C(C)C)cc3)cc2)cc1)C(=O)N[C@H](CCCCN)C(=O)N[C@@H](C)C(=O)NCc1ccc(CC(=O)NCC(=O)N[C@H](Cc2c[nH]c3ccccc23)C(=O)N[C@H](Cc2c[nH]cn2)C(=O)N[C@H](CCCNC(=N)N)C(=O)N[C@@H](C)C(=O)NCc2ccc(CC(N)=O)cc2)cc1` [KRAS-1-14] (5FAM-[dS][dP][dH][dE]F[X1]G[dV][dP][dR]A[X1][dP][dS][dE][dR]G[X1][dP][dK][dY][dR]F[X1][dA][dE][dL][dK]A[X1]G[dW][dH][dR]A-{NHCH2C6H4(4-CH2CONH2)}), for which the Kd at K-Ras was 155 nM. Besides, in data set [1], the “Internalization (cell uptake) in HEK293” value was “minimal uptake”. Further, the “Internalization (cell uptake) in HepG2” value in data set [2] is recorded as “minimal uptake”.

For the molecule `CC(C)C[C@H](NC(=O)[C@@H](CCCNC(=N)N)NC(=O)[C@@H](C)NC(=O)Cc1ccc(CNC(=O)[C@H](CC(C)C)NC(=O)[C@@H](CCCNC(=N)N)NC(=O)[C@@H](CCC(=O)O)NC(=O)Cc2ccc(CNC(=O)[C@H](C)NC(=O)[C@@H](CCCCN)NC(=O)[C@@H](Cc3ccc(O)cc3)NC(=O)Cc3ccc(CNC(=O)[C@H](C)NC(=O)[C@@H](CCCNC(=N)N)NC(=O)[C@@H](Cc4ccccc4)NC(=O)Cc4ccc(CNC(=O)[C@H](Cc5ccccc5)NC(=O)[C@@H](CO)NC(=O)[C@@H](CCCNC(=N)N)NC(=O)Cc5ccc(CNC(=O)[C@@H](NC(=O)[C@@H](CO)NC(=O)[C@@H](Cc6ccc(O)cc6)NC(=O)Cc6ccc(CNC(=O)[C@H](Cc7ccccc7)NC(=O)[C@H](NC(=O)[C@@H](CC(N)=O)NC(=O)c7ccc8c(c7)C(=O)OC87c8ccc(O)cc8Oc8cc(O)ccc87)C(C)C)cc6)C(C)C)cc5)cc4)cc3)cc2)cc1)C(=O)NCc1ccc(CC(=O)N2CCC[C@@H]2C(=O)N[C@H](CCCNC(=N)N)C(=O)N[C@@H](C)C(=O)NCc2ccc(CC(=O)N[C@H](Cc3ccccc3)C(=O)N[C@H](CCCCN)C(=O)NCC(=O)NCc3ccc(CC(N)=O)cc3)cc2)cc1` [IL6R-87-8, Fluorescein-(D)Asn-(D)Val-(L)Phe-PAM-(D)Tyr-(D)Ser-(L)Val-PAM-(D)Arg-(D)Ser-(L)Phe-PAM-(D)Phe-(D)Arg-(L)Ala-PAM-(D)Tyr-(D)Lys-(L)Ala-PAM-(D)Glu-(D)Arg-(L)Leu-PAM-(D)Ala-(D)Arg- (L)Leu-PAM-(D)Pro-(D)Arg-(L)Ala-PAM-(D)Phe-(D)Lys-Gly-PAM] (5FAM-[dN][dV]F[X1][dY][dS]V[X1][dR][dS]F[X1][dF][dR]A[X1][dY][dK]A[X1][dE][dR]L[X1][dA][dR]L[X1][dP][dR]A[X1][dF][dK]G-{NHCH2C6H4(4-CH2CONH2)}), the “Stability in human plasma” value in data set [3] is “stayed largely intact”. Also, the “Stability in the presence of proteinase K” value at proteinase K is recorded as “minimal degradation”. Binding on IL-6R was characterised by a dissociation constant (Kd) of 0.62 nM.

What is called Kd is the constant that tells how readily two partners part at equilibrium.
